Assay results as given in patent US4250170A, “Antibacterial agents Bu-2349A and B and method of using same” (Bristol-Myers Company, priority 1979, dated 1981).
Values after ≈ are worked out from the molar mass of the structure shown. Like-named read-outs stand apart in the source and are kept apart here.

Assays:
Test in all cases: MIC, two-fold agar dilution
Format in all cases: cell-based
[1] = tested on: Escherichia coli NIHJ (Ec-1); settings: 18 h, Table 3, Mueller-Hinton agar, 10^-4 dilution
[2] = tested on: Escherichia coli (Ec-49), APH(3')-2; settings: 18 h, Table 3, Mueller-Hinton agar, 10^-4 dilution, enzyme APH(3')-2
Mycobacterium 607 (M6-1) = settings: 18 h, Table 3, Mueller-Hinton agar, 10^-4 dilution
[3] = tested on: Bacillus subtilis PCI 219 (Bs-1); settings: 18 h
Method: (§1) The minimum inhibitory concentrations (MIC) of Bu-2349A and B were determined against a wide variety of bacteria by the two-fold agar dilution method. Mueller-Hinton agar medium was generally used for the determination of bacterial MIC except for species of Streptococcus, Neisseria and Hemophilus for which Gonococcus agar medium (GC agar, Nissui Co., Tokyo) was used. Gifu anaerobe agar medium (GAM agar, Eiken Co., Tokyo) was used for anaerobic bacteria. The MIC's were determined after overnight incubation at 37° C. with an initial inoculum equivalent to a 10^-4 dilution of an 18-hour culture for the aerobic and anaerobic bacteria, except for Streptococcus, Neisseria and Hemophilus for which a 10^-2 dilution was used.
(§2) The influence of inoculum size on MIC was tested on Mueller-Hinton agar using an inoculum of […], 10^-2 or 10^-4 dilution of the overnight culture of test organisms.
(§3) The effect of media pH on the MIC's of Bu-2349A was determined at three pH levels (6, 7 and 8) using Mueller-Hinton agar.
(§4) The media effect on the MIC's of Bu-2349A was tested using four kinds of assay media: Mueller-Hinton agar (MHA), nutrient agar (NA), heart infusion agar (HIA) and brain heart infusion agar (BHIA). The pH was adjusted at 7 and a 10^-4 dilution of overnight culture was used for the inoculum.

[4] = tested on: Staphylococcus aureus 209P (Sa-1); settings: 18 h
Method: as §1, §2, §3, §4

[5] = tested on: Escherichia coli ML-1630 (Ec-5), APH(3')-1; settings: 18 h
Method: as §1, §2, §3, §4

[6] = tested on: Klebsiella pneumoniae (Kp-2); settings: 18 h
Method: as §1, §2, §3, §4

Proteus morganii (Pg-1) = settings: Morganella morganii, 18 h
Method: as §1, §2, §3, §4

[7] = tested on: Escherichia coli Juhl (Ec-3); settings: 18 h
Method: as §1, §2, §3, §4

Proteus mirabilis (Pm-1) = tested on: Proteus mirabilis (Pm-1)
Method: as §1, §2, §3, §4

[8] = tested on: Pseudomonas aeruginosa (Pa-3); settings: 18 h
Method: as §1, §2, §3, §4

[9] = tested on: Streptococcus pyogenes (Sp-3); settings: 18 h, Table 3, GC agar, 10^-2 dilution
Proteus vulgaris (Pv-1) = settings: 18 h, Table 3, Mueller-Hinton agar, 10^-4 dilution
[10] = tested on: Staphylococcus aureus Terajima (Sa-33); settings: 18 h, Table 3, Mueller-Hinton agar, 10^-4 dilution
[11] = tested on: Neisseria gonorrhoeae (Ng-1); settings: 18 h, Table 3, GC agar, 10^-2 dilution
[12] = Table 3, Mueller-Hinton agar, 10^-4 dilution
[13] = pH 6, Table 6, Mueller-Hinton Agar, 10^-4 dilution, pH 6
[14] = pH 7, Table 5, Mueller-Hinton Agar, pH 7, inoculum 10^0 dil.
[15] = pH 7, Table 5, Mueller-Hinton Agar, pH 7, inoculum 10^-2 dil.
[16] = pH 7, Table 5, Mueller-Hinton Agar, pH 7, inoculum 10^-4 dil.
[17] = pH 7, Table 6, Mueller-Hinton Agar, 10^-4 dilution, pH 7
[18] = pH 7, Table 7, pH 7, 10^-4 dilution, BHIA
[19] = pH 7, Table 7, pH 7, 10^-4 dilution, HIA
[20] = pH 7, Table 7, pH 7, 10^-4 dilution, MHA
[21] = pH 7, Table 7, pH 7, 10^-4 dilution, NA
[22] = pH 8, Table 6, Mueller-Hinton Agar, 10^-4 dilution, pH 8

`C=C1OC(OC2C(CO)OC(Oc3ccc(C(=O)NCCCNCCCCNCCCCN)cc3)C2O)C(O)C(OC2OC(CO)C(OC3OC(C)C(N)C(O)C3NC(=O)C(C)N)C(O)C2O)C1O` (centres unmarked) [Bu-2349A] was tested, and the MIC [1] was 1.6 µg/mL (≈ 1.62 µM), the MIC [2] was 1.6 µg/mL (≈ 1.62 µM) and the MIC (Mycobacterium 607 (M6-1)) was 3.1 µg/mL (≈ 3.13 µM). For the same compound, the MIC [3, 12] was 1.6 µg/mL (≈ 1.62 µM), the MIC [3, 13] was 50 µg/mL (≈ 50.5 µM) and the MIC [3, 14] was 6.3 µg/mL (≈ 6.36 µM). It also gave an MIC [3, 15] of 3.1 µg/mL (≈ 3.13 µM), an MIC [3, 16] of 3.1 µg/mL (≈ 3.13 µM) and an MIC [3, 17] of 3.1 µg/mL (≈ 3.13 µM). It also gave an MIC [3, 18] of 6.3 µg/mL (≈ 6.36 µM), an MIC [3, 19] of 1.6 µg/mL (≈ 1.62 µM) and an MIC [3, 20] of 3.1 µg/mL (≈ 3.13 µM). It also gave an MIC [3, 21] of 0.8 µg/mL (≈ 0.808 µM), an MIC [3, 22] of 1.6 µg/mL (≈ 1.62 µM) and an MIC [4, 12] of 3.1 µg/mL (≈ 3.13 µM). It also gave an MIC [4, 13] of 50 µg/mL (≈ 50.5 µM), an MIC [4, 14] of 6.3 µg/mL (≈ 6.36 µM) and an MIC [4, 15] of 3.1 µg/mL (≈ 3.13 µM). The MIC [4, 16] was 3.1 µg/mL (≈ 3.13 µM), the MIC [4, 17] was 3.1 µg/mL (≈ 3.13 µM) and the MIC [4, 18] was 3.1 µg/mL (≈ 3.13 µM). The MIC [4, 19] was 1.6 µg/mL (≈ 1.62 µM), the MIC [4, 20] was 3.1 µg/mL (≈ 3.13 µM) and the MIC [4, 21] was 1.6 µg/mL (≈ 1.62 µM). For the same compound, the MIC [4, 22] was 1.6 µg/mL (≈ 1.62 µM), the MIC ([5]; Table 3, Mueller-Hinton agar, 10^-4 dilution, enzyme APH(3')-1) was 1.6 µg/mL (≈ 1.62 µM) and the MIC [5, 13] was 50 µg/mL (≈ 50.5 µM). For the same compound, the MIC [5, 14] was 6.3 µg/mL (≈ 6.36 µM), the MIC [5, 15] was 3.1 µg/mL (≈ 3.13 µM) and the MIC [5, 16] was 3.1 µg/mL (≈ 3.13 µM). The MIC [5, 17] was 3.1 µg/mL (≈ 3.13 µM), the MIC [5, 18] was 3.1 µg/mL (≈ 3.13 µM) and the MIC [5, 19] was 1.6 µg/mL (≈ 1.62 µM). The MIC [5, 20] was 3.1 µg/mL (≈ 3.13 µM), the MIC [5, 21] was 1.6 µg/mL (≈ 1.62 µM) and the MIC [5, 22] was 1.6 µg/mL (≈ 1.62 µM). It also gave an MIC ([6]; Table 3, Mueller-Hinton agar, 10^-4 dilution, read-out: MIC) of 3.1 µg/mL (≈ 3.13 µM), an MIC ([6]; pH 6, Table 6, Mueller-Hinton Agar, 10^-4 dilution, pH 6, read-out: MIC) of 50 µg/mL (≈ 50.5 µM) and an MIC ([6]; pH 7) of 12.5 µg/mL (≈ 12.6 µM). It also gave an MIC ([6]; pH 7, Table 5, Mueller-Hinton Agar, pH 7, inoculum 10^-2 dil., read-out: MIC) of 6.3 µg/mL (≈ 6.36 µM), an MIC ([6]; pH 7, Table 5, Mueller-Hinton Agar, pH 7, inoculum 10^-4 dil., read-out: MIC) of 3.1 µg/mL (≈ 3.13 µM) and an MIC ([6]; pH 7, Table 6, Mueller-Hinton Agar, 10^-4 dilution, pH 7, read-out: MIC) of 3.1 µg/mL (≈ 3.13 µM). The MIC ([6]; pH 7, Table 7, pH 7, 10^-4 dilution, BHIA, read-out: MIC) was 3.1 µg/mL (≈ 3.13 µM), the MIC ([6]; pH 7, Table 7, pH 7, 10^-4 dilution, HIA, read-out: MIC) was 1.6 µg/mL (≈ 1.62 µM) and the MIC ([6]; pH 7, Table 7, pH 7, 10^-4 dilution, MHA, read-out: MIC) was 3.1 µg/mL (≈ 3.13 µM). The MIC ([6]; pH 7, Table 7, pH 7, 10^-4 dilution, NA, read-out: MIC) was 1.6 µg/mL (≈ 1.62 µM), the MIC ([6]; pH 8, Table 6, Mueller-Hinton Agar, 10^-4 dilution, pH 8, read-out: MIC) was 3.1 µg/mL (≈ 3.13 µM) and the MIC (Proteus morganii (Pg-1); [12]) was 25 µg/mL (≈ 25.2 µM). For the same compound, the MIC (Proteus morganii (Pg-1); [13]) was over 50 µg/mL, the MIC (Proteus morganii (Pg-1); [14]) was over 50 µg/mL and the MIC (Proteus morganii (Pg-1); [15]) was 50 µg/mL (≈ 50.5 µM). It also gave an MIC (Proteus morganii (Pg-1); [16]) of 25 µg/mL (≈ 25.2 µM), an MIC (Proteus morganii (Pg-1); [17]) of 25 µg/mL (≈ 25.2 µM) and an MIC (Proteus morganii (Pg-1); [18]) of 25 µg/mL (≈ 25.2 µM). It also gave an MIC (Proteus morganii (Pg-1); [19]) of 25 µg/mL (≈ 25.2 µM), an MIC (Proteus morganii (Pg-1); [20]) of 25 µg/mL (≈ 25.2 µM) and an MIC (Proteus morganii (Pg-1); [21]) of 6.3 µg/mL (≈ 6.36 µM). The MIC (Proteus morganii (Pg-1); [22]) was 25 µg/mL (≈ 25.2 µM), the MIC [7, 12] was 1.6 µg/mL (≈ 1.62 µM) and the MIC [7, 13] was 25 µg/mL (≈ 25.2 µM). The MIC [7, 14] was 6.3 µg/mL (≈ 6.36 µM), the MIC [7, 15] was 3.1 µg/mL (≈ 3.13 µM) and the MIC [7, 16] was 3.1 µg/mL (≈ 3.13 µM). It also gave an MIC [7, 17] of 3.1 µg/mL (≈ 3.13 µM), an MIC [7, 18] of 6.3 µg/mL (≈ 6.36 µM) and an MIC [7, 19] of 1.6 µg/mL (≈ 1.62 µM). The MIC [7, 20] was 3.1 µg/mL (≈ 3.13 µM), the MIC [7, 21] was 3.1 µg/mL (≈ 3.13 µM) and the MIC [7, 22] was 1.6 µg/mL (≈ 1.62 µM). For the same compound, the MIC (Proteus mirabilis (Pm-1); Proteus mirabilis, 18 h, Table 3, Mueller-Hinton agar, 10^-4 dilution, read-out: MIC) was 6.3 µg/mL (≈ 6.36 µM), the MIC (Proteus mirabilis (Pm-1); Proteus mirabilis, 18 h, pH 6, Table 6, Mueller-Hinton Agar, 10^-4 dilution, pH 6, read-out: MIC) was over 50 µg/mL and the MIC (Proteus mirabilis (Pm-1); Proteus mirabilis, 18 h, pH 7) was 12.5 µg/mL (≈ 12.6 µM). It also gave an MIC (Proteus mirabilis (Pm-1); Proteus mirabilis, 18 h, pH 7, Table 5, Mueller-Hinton Agar, pH 7, inoculum 10^0 dil., read-out: MIC) of 50 µg/mL (≈ 50.5 µM), an MIC (Proteus mirabilis (Pm-1); Proteus mirabilis, 18 h, pH 7, Table 5, Mueller-Hinton Agar, pH 7, inoculum 10^-2 dil., read-out: MIC) of 25 µg/mL (≈ 25.2 µM) and an MIC (Proteus mirabilis (Pm-1); Proteus mirabilis, 18 h, pH 7, Table 7, pH 7, 10^-4 dilution, HIA, read-out: MIC) of 6.3 µg/mL (≈ 6.36 µM). The MIC (Proteus mirabilis (Pm-1); Proteus mirabilis, 18 h, pH 7, Table 7, pH 7, 10^-4 dilution, MHA, read-out: MIC) was 6.3 µg/mL (≈ 6.36 µM), the MIC (Proteus mirabilis (Pm-1); Proteus mirabilis, 18 h, pH 7, Table 7, pH 7, 10^-4 dilution, NA, read-out: MIC) was 3.1 µg/mL (≈ 3.13 µM) and the MIC (Proteus mirabilis (Pm-1); Proteus mirabilis, 18 h, pH 8) was 12.5 µg/mL (≈ 12.6 µM). For the same compound, the MIC (Proteus mirabilis (Pm-1); Table 6, Mueller-Hinton Agar, 10^-4 dilution, pH 7) was 12.5 µg/mL (≈ 12.6 µM), the MIC (Proteus mirabilis (Pm-1); Table 7, pH 7, 10^-4 dilution, BHIA) was 12.5 µg/mL (≈ 12.6 µM) and the MIC [8, 12] was 25 µg/mL (≈ 25.2 µM). For the same compound, the MIC [8, 13] was over 50 µg/mL, the MIC [8, 14] was over 50 µg/mL and the MIC [8, 15] was 50 µg/mL (≈ 50.5 µM). For the same compound, the MIC [8, 16] was 25 µg/mL (≈ 25.2 µM), the MIC [8, 17] was 25 µg/mL (≈ 25.2 µM) and the MIC [8, 18] was 25 µg/mL (≈ 25.2 µM). The MIC [8, 19] was 12.5 µg/mL (≈ 12.6 µM), the MIC [8, 20] was 50 µg/mL (≈ 50.5 µM) and the MIC [8, 21] was 6.3 µg/mL (≈ 6.36 µM). It also gave an MIC [8, 22] of 12.5 µg/mL (≈ 12.6 µM), an MIC [9] of over 100 µg/mL and an MIC (Proteus vulgaris (Pv-1)) of 1.6 µg/mL (≈ 1.62 µM). For the same compound, the MIC [10] was 1.6 µg/mL (≈ 1.62 µM) and the MIC [11] was over 100 µg/mL.
